In paper PMC7960626, “Phase I study assessing the mass balance, pharmacokinetics, and excretion of [^14C]-pevonedistat, a NEDD8-activating enzyme inhibitor in patients with advanced solid tumors” (Investigational New Drugs, 2020):
Read-outs that look alike come from different tables or passages of the source.

Columns and labels:
[1] = Mass balance: recovery of total radioactivity in urine and feces (part A); type: in vivo, human; details: post dose; single IV dose 25 mg/m^2
Experimental: This was a two-part (A and B), open-label, multicenter, mass balance, distribution, metabolism, excretion (DME) study in adult patients with advanced solid tumors. In part A, patients received a single IV infusion of [^14C]-pevonedistat 25 mg/m^2 (containing approximately 60–85 µCi, or 2.22–3.145 MBq, of total radioactivity) at a single center (Duna Medical Center, Budapest, Hungary). Patients were required to stay at the part A study site for approximately 8 days or until the discharge criteria were met, with a maximum estimated confinement period of 9–14 days. […]
The primary objectives of the study were to assess the mass balance (cumulative recovery of total radioactivity in urine and feces) and to characterize the PK of pevonedistat (whole blood, plasma, and urine) and total radioactivity (drug-related material; plasma and whole blood) following a single infusion of [^14C]-pevonedistat 25 mg/m^2 (part A).
Blood samples were collected for total radioactivity and PK assessments in whole blood and plasma at prespecified time points (pre dose [within 1 h before the start of the pevonedistat infusion], end of infusion, then 0.5, 1, 2, 3, 4, 8, 12, 24, 48, 72, 96, 120, 144 and 168 hours post dose). Complete urinary and fecal output were collected for analysis of PK (urine) and total radioactivity (urine and feces) throughout the confinement period until discharge criteria were met. […]

[2] = cited from earlier work
[3] = test system: acute myeloid leukemia (AML) xenograft models; parameters: method as in PMID 20203261; details: mice; cited from earlier work
advanced solid tumors = test system: advanced solid tumors; parameters: method as in PMID 29781056; details: cited from earlier work
[4] = test system: human xenograft tumors of activated B-cell (ABC) and germinal center B-cell (GCB) diffuse large B-cell lymphoma (DLBCL); parameters: method as in PMID 20525923; details: in vivo administration, mice; cited from earlier work
[5] = in combination with carboplatin plus paclitaxel

In the case of `NS(=O)(=O)OC[C@@H]1C[C@@H](n2ccc3c(N[C@H]4CCc5ccccc54)ncnc32)C[C@@H]1O` [Pevonedistat], the “time by which the majority of the radioactivity was recovered” value [1] is given as no more than 96 h, the PK linearity ([2]; dose range 25–278 mg/m^2) is given as “linear and dose-proportional” and the “elimination half-life in plasma” value ([2]; patients with metastatic melanoma) is given as “approximately 10 hours”. For the same compound, the “mean terminal elimination half-life” value ([2]; plasma, estimated across doses and schedules, 1-h IV infusion) was 5 to 8 h, the “typical CL” value ([2]; population PK analysis in more than 300 patients) was 31.5 L/h and the “effect of mild or moderate renal impairment (creatinine clearance 30–89 mL/min) on exposure” value ([2]; population PK analysis) was “does not have a clinically meaningful impact on pevonedistat exposures”. For the same compound, the disease course [3] was “durable disease regression”, the “maximum tolerated dose (MTD)” value (advanced solid tumors; [5]) was 20 mg/m^2 and the “overall response rate [ORR]” value (advanced solid tumors; [5]) was 35%. The “maximum tolerated dose (MTD)” value (advanced solid tumors; in combination with docetaxel) was 25 mg/m^2, the “overall response rate [ORR]” value (advanced solid tumors; in combination with docetaxel) was 16% and the tumor growth [4] was “complete tumor growth inhibition”.
